Measured values as given in publication PMC12040169 (PLOS Biology, 2025).

Test: in vitro
Settings: human, hela cells, % viability

SMILES	viability at 28.5 h, 10 µM
N#CC1=C(N)n2c(s/c(=C\c3ccc(O)cc3)c2=O)=C(C#N)C1c1ccc(O)cc1 (stereo not drawn) [CBK217780]	103%
Nc1cc2cccnc2c(-c2ccsc2)n1 [CBK081218]	89.6%
CCC(=O)NCc1ccc(-c2nc3ncccc3o2)cc1 [CBK270220]	108%
NC(=S)NC(=O)CN1C(=O)c2ccccc2C1=O [CBK264111]	90.9%
Cc1noc(C)c1NC(=O)c1cn(C)c2ccccc12 [CBK200312]	87.3%
CC(=O)N1CCC2(CC1)NC(=O)N(c1ccc(C(=O)O)cc1)N2 [CBK286758]	103%
COc1ccc(-c2cnc(NCC3CC3)c(C(=O)NCCc3c[nH]c4ccccc34)c2)cc1 [CBK076349]	96.4%
COCc1cc2n[nH]c(=O)n2c(-c2ccccc2)n1 [CBK288507]	98.3%
CCn1nc(C)c(-c2cncn2CCCN2CCCCC2)c1C [CBK281769]	97.6%
CC(=O)Nc1ccc(NC(=O)NCC2CCCO2)c(C(F)(F)F)c1 (stereo not drawn) [CBK304150]	92.8%
Cc1cc(NC(=O)CCCN2C(=O)c3cccc4cccc(c34)C2=O)n(-c2ccccc2)n1 [CBK265874]	109%
COc1ccccc1-c1nnc(SCc2cccc(C(=O)O)c2)[nH]1 [CBK269952]	85.3%
OCCN(CCO)CC1CC=CCC1 (stereo not drawn) [CBK261907]	108%
Cc1cccc(C)c1NC(=O)c1c(NC(=O)c2ccco2)sc2c1CCC(C)C2 (stereo not drawn) [CBK265550]	107%
CCn1c(SCC(=O)Nc2cccc([N+](=O)[O-])c2)nnc1-c1cc(Br)ccc1O [CBK267980]	86%
O=C(C1C2CCCCC21)N1CCC(c2nnc3n2CCCCC3)CC1 (stereo not drawn) [CBK283351]	95.2%
CN(C)C[C@@H]1Cc2cccc3cccc(c23)[C@@H]1O [CBK005877C]	111%
NC(=O)CC1C(=O)N(c2ccc(F)cc2)C(=S)N1NC(=O)CCc1ccccc1 (stereo not drawn) [CBK268978A]	108%
CC1CC(=O)C2=C(C1)NN=C(c1cccc(C(F)(F)F)c1)C2 (stereo not drawn) [CBK020138]	86.9%
CCOC(=O)Cc1csc(SC(C)C(=O)N2CCCc3ccccc32)n1 (stereo not drawn) [CBK304228]	98.9%
CN(C)CC(=O)NCc1ccc(-c2nc(-c3ccc(C#N)cc3)cnc2N)cc1 [CBK116506]	92%
Brc1ccc(C2(c3nnc(C4CC4)o3)CCOCC2)cc1 [CBK305498]	98.2%
Cc1nc(C(C)NC(=O)c2cc(C3CC3)nc3c2c(C)nn3C)cs1 (stereo not drawn) [CBK304779]	93.7%

SMILES	viability at 28.5 h, 10 µM
COc1ccc(CC(=O)O)cc1S(=O)(=O)Nc1ccc(SC)cc1 [CBK298315]	81%
Cc1cccc(-c2n[nH]c(=S)n2CC(=O)NCCCS(=O)(=O)Cc2ccccc2)c1 [CBK297942]	103%
CC(=O)Nc1ccc(-c2nc3ncccc3o2)cc1C [CBK288132]	91.1%
O=c1cc2ncc(-c3ccncc3)cn2[nH]1 [CBK011300]	98.3%
COC[C@H]1CCCN1C(=O)CC[C@H]1CNC(=O)[C@@H]2[C@@H](CCN2C(C)C)N1C [CBK289038]	103%
CC(=O)N1CCc2cc(-c3cc4cc(C)ccn4c3)ccc21 [CBK285228]	75.2%
Cn1cnc2cc(NCc3cc(-c4ccc(F)cc4)c[nH]c3=O)ccc21 [CBK284693]	50.7%
O=C(O)c1cccc(-c2cc(N3CCN(Cc4cccnc4)CC3)n3nccc3n2)c1 [CBK037080]	106%
O=C(CN1CCC(NC(=O)c2cccs2)CC1)Nc1cc(F)ccc1F [CBK305997]	102%
CCNC(=O)[C@H]1CC[C@]2(CC1)CNC(=O)c1cc(Cl)ccc1O2 [CBK284890]	95.4%
Cc1nc(C)c(-c2csc(Nc3ccc(C(=O)O)c(O)c3)n2)s1 [CBK267263]	101%
CC(NC(=O)C1(Cn2ccnc2)CC1)c1nc(-c2ccccn2)no1 (stereo not drawn) [CBK307514]	107%
Cc1cc2c(s1)c1cnn(CC(=O)N(C)C)c(=O)c1n2C [CBK284231]	99.5%
Cn1c(=O)c2c(nc(CN3CCCCC3)n2CC(=O)c2ccccc2)n(C)c1=O [CBK269563]	87.1%
O=C(c1ccc(F)cc1)N1CCCC(c2nccnc2-c2cccc(C(F)(F)F)c2)C1 (stereo not drawn) [CBK286142]	98.3%
CC(C)(C)OC(=O)N1CCC(Oc2nccnc2Cl)CC1 [CBK067386]	89.8%
O=C(NCc1ccc(Cl)cc1)c1cnc2ccc(CN3CCSCC3)cc2c1O [CBK018010]	97.9%
CN(CC(=O)Nc1sc2c(c1C#N)CCCCC2)Cc1cnn(C)c1 [CBK304621]	94.3%
COC(=O)c1cc(OC)c(OC)cc1NC(=O)C1CCC1C(=O)O (stereo not drawn) [CBK057084]	82.5%
OCCNC(=S)Nc1ccc(Cl)cc1Cl [CBK265330]	106%
CCC(CC)C(=O)N1CCCC1c1n[nH]cc1-c1ccncc1 (stereo not drawn) [CBK283467]	87.9%
O=C(COC(=O)c1ccccc1NC(=O)c1ccccc1)c1ccc2ccccc2c1 [CBK265491]	94.9%
COc1ccc(Br)cc1S(=O)(=O)Nc1c(C(=O)O)sc2ncccc12 [CBK049978]	88%

SMILES	viability at 28.5 h, 10 µM
O=C(NCCCC1CCOC1)c1cc2ccc(F)cc2[nH]1 (stereo not drawn) [CBK283213]	110%
N#Cc1ccccc1CSc1nnc(Cc2cccc3ccccc23)n1-c1ccccc1 [CBK266633]	89.7%
COc1ccc2[nH]c3c(c2c1)CCNC31CCN(C(=O)COc2ccccc2)C1 (stereo not drawn) [CBK061661]	88.8%
C[C@@H](Nc1cncc(-c2ccc3c(c2)OCO3)n1)c1ccccc1 [CBK065954]	108%
COc1ccc2[nH]c(=O)c(CNc3ccc(CCc4nc5ccccc5n4C)cc3)cc2c1 [CBK286162]	87.9%
Cc1cc(C)c2nc(C(F)(F)F)nc(NCCCN3CCOCC3)c2c1 [CBK266753]	86.4%
CSc1nnc(-c2cccc(C)c2)n1CC(C)C [CBK076764T]	89.1%
Nc1ccc(Oc2nc(Oc3ccc(N)cc3)c(F)c(Oc3ccc(N)cc3)c2F)cc1 [CBK266397C]	110%
O=C(NCc1ccc(-c2csnn2)cc1)c1ccc(Oc2ccccc2)cc1 [CBK149300]	108%
O=[N+]([O-])c1nn(-c2ccc(Cl)cc2)[n+]([O-])c1NCc1ccccn1 [CBK268270]	96.6%
Nc1ncc(-c2ccc(C(=O)N3CCOCC3)cc2)nc1C(=O)Nc1ccccc1 [CBK149153]	85.7%
Clc1ccc(-c2csc3ncnc(SCc4ccco4)c23)cc1 [CBK265972]	90.5%
Cc1ccccc1-c1nnc(SC(C)C)n1CCN(C)CC(F)(F)F [CBK200090]	92.3%
COCC(=O)N1CC[C@@H]2[C@H]1C(=O)N(c1ccc(OC)cc1)C(=O)N2Cc1ccccc1 [CBK289280]	92.9%
CCOC(=O)CCCNC(=O)N1CCCC(C(=O)O)C1 (stereo not drawn) [CBK161374]	83.5%
CCCc1cc(CNC(=O)C(C)n2ccnc2)on1 (stereo not drawn) [CBK282046]	88.3%
CC(CCc1ccccc1)NC(=O)CC1COc2ccccc2O1 (stereo not drawn) [CBK266203]	103%
O=c1[nH]nc2cc(NCc3ccc(Cl)cc3)ncn12 [CBK288479]	114%
Nc1n[nH]c(CCCc2nc(N)n[nH]2)n1 [CBK261016]	89.8%
CC(=O)Nc1ccc(-c2csc(N3CCN(C)CC3)n2)cc1 [CBK305865]	93.6%
CC(C)CNC(=O)N1CCN(CCN2CCOCC2)CC1 [CBK155826]	88.1%
O=C(Nc1ccc(N2CCNCC2)nc1)c1ccccc1 [CBK028277T]	114%
CC1CCCC(C)N1C(=O)C1CCCCC1C(=O)O (stereo not drawn) [CBK026624]	93.2%

SMILES	viability at 28.5 h, 10 µM
O=c1[nH]cccc1-c1noc(-c2cnccn2)n1 [CBK288538]	90%
COC(=O)c1ccc(NS(=O)(=O)c2cc(Cl)sc2Cl)cc1 [CBK028684]	107%
FC(F)(F)c1cccc(-c2cn(-c3ccsc3)nn2)c1 [CBK112937]	88.5%
Cc1cc(=O)c(C#N)c(C)[nH]1 [CBK023326]	92.4%
CC(=O)C1=C(C)N2C(=Nc3ccccc3C2(C)C)S1 [CBK010180C]	85.5%
O=C(O)/C=C/C(=O)N(Cc1ccc2c(c1)OCO2)C1CC(=O)N(c2ccccc2)C1=O (stereo not drawn) [CBK262786]	91.4%
O=C(Cc1ccccc1)Nc1ccc(NC(=O)c2ccc(-c3ccccc3)cc2)cc1 [CBK268821]	87.2%
Cc1n[nH]cc1CN(CCCn1ccnc1)Cc1cccc(F)c1 [CBK282650]	90.1%
CN(C)CCOC1OC(CO)C(O)C(O)C1O (stereo not drawn) [CBK012476C]	94.4%
Cc1ccc(C2=NN(C(=O)CCC(=O)O)C(c3cc4cccc(C)c4[nH]c3=O)C2)cc1 (stereo not drawn) [CBK296927]	91%
COc1ccc(-c2cc(C(=O)NCCc3ccncc3)cnc2-c2cccc(C)c2)cn1 [CBK037489]	99.1%
COCc1cc(CC2(NCc3ccc(NC(C)=O)cc3)COC2)no1 [CBK289701]	110%
Cc1noc(C)c1CC(=O)N1[C@H]2CCCCCN(C)[C@@]2(C)C[C@H]1c1ccccc1 [CBK286094]	85.8%
O=C(O)c1cc(NCc2cccc(F)c2F)n[nH]1 [CBK287006]	93.4%
CCCSc1nc2c(c(=O)[nH]1)C(c1ccncc1)C1=C(CCCC1=O)N2 (stereo not drawn) [CBK287606]	106%
CCS(=O)(=O)c1ccc2cc(C(=O)O)[nH]c2c1 [CBK286951]	101%
CC(Oc1ccccc1)C(=O)Nc1ccccc1NC(=O)c1ccco1 (stereo not drawn) [CBK269636]	88.4%
Cc1noc(C)c1C(=O)N1CCC2(CC1)CC(=O)c1ccc(OCc3ccccc3)c(C)c1O2 [CBK156506]	97.4%
CN(C)Cc1ccc(C(=O)N2CCc3[nH]c4ccccc4c3C2)cc1 [CBK281847]	82.9%
Clc1ccc(-n2c(SCc3nc4ccccc4[nH]3)nnc2-c2ccncc2)cc1 [CBK267557]	100%
CC1(C)CC(=O)c2cnc3ncnn3c2C1 [CBK007345]	110%
